Test results as given in PMC5236087, “A Generic Multi-Compartmental CNS Distribution Model Structure for 9 Drugs Allows Prediction of Human Brain Target Site Concentrations” (Pharmaceutical Research, 2016).
Like-named read-outs stand apart in the source and are kept apart here. Marks after values point to notes of the source that are not given here.

Key:
[1] = design: method as in DrugBank (http://www.drugbank.ca/); PSA: unit not given beside the values; details: ref DrugBank (http://www.drugbank.ca/), cited from earlier work
[2] = design: method as in PMID 4150300; details: human; cited from earlier work
[3] = Multi-compartmental brain PK model fitted to rat plasma and microdialysis (brainECF, CSF) data; format: in vivo; details: parameter estimate (RSE, %); for clearance: male, Wistar, plasma, intravenous infusion, read-out: CLPL, clearance from the central compartment
Description: An overview of experimental data for nine compounds with different physicochemical characteristics used for model development is provided in Table I. The physicochemical characteristics of the nine compounds are provided in Table SI.
Animal study protocols were approved by the Animal Ethics Committee of Leiden University and all animal experiments were performed in accordance with the Dutch Law of Animal Experimentation (for approval numbers see Table SII). […] Between surgery and experiments, the animals were kept individually in Makrolon type three cages for 7 days to recover from surgical procedures.
Rats were anesthetized (5% isoflurane for induction, 1–2% as maintenance), and subsequently received cannulas in the femoral artery for serial blood sampling, and in the femoral vein for drug administration, respectively. Subsequently, microdialysis guides were inserted into different brain locations. The animals were allowed to recover for 1 week before the experiments were performed. One day before the experiment, the microdialysis dummies were replaced by microdialysis probes. For details on guides, probes and locations see Table SII.
Experiments generally started at 9:00 a.m. to minimize the influence of circadian rhythms. Microdialysis probes were continuously flushed with microdialysis perfusion fluid (PF) until equilibration before the start of drug administration. Drugs were administered at t = 0 h by intravenous infusion through the cannula implanted in the femoral vein. […] The general procedure of microdialysis is depicted in Fig. 1.
Separate models describing plasma and brain concentration-time profiles for all nine compounds were developed whereby plasma- and brain-related parameters were estimated simultaneously. A naïve pooling approach was used ([37]), i.e. inter-individual variability in each compound’s data was not quantified, because of the highly standardized experimental settings combined with the homogeneous nature of the animals within each study.
The structural model that was used as a starting point was based on our previously developed models ([23]–[25]).
First, a combined drug dispersion parameter was estimated to capture the CSF and ECF flow and turbulence flow of the drug molecules ([38],[39]).
Second, drug transfer across the BCSFB was excluded.
We evaluated for each drug the validity of the changes to the basic model with regard to a single or two different flow rates for drug dispersion and drug transport at the BCSFB.

[4] = cited from earlier work; for fP (%), free fraction in plasma: rat data; for plasma protein binding (% bound): used to calculate free fraction in plasma
[5] = test system: MRPs, OATs and OATPs; assay: Effect of co-administered probenecid on drug exchange at the BBB and BCSFB; format: in vivo; details: rat
[6] = Fraction unbound in plasma (rat data); format: in vitro ADME; details: rat pooled plasma, ultrafiltration; read-out: fP (%), free fraction in plasma
Description: To determine the free fraction of paliperidone and risperidone in plasma samples, Centrifree Ultrafiltration Devices from Merck Millipore (Amsterdam, The Netherlands) were used to separate the free from the protein bound risperidone and paliperidone in pooled plasma samples. Both the ultrafiltrate and the original pooled plasma sample (without ultrafiltration step) were measured. The free fraction was calculated according to the following Eq. 1:1 Freefraction=Ultrafiltrateconcentration/Pooledplasmaconcentration

[7] = test system: P-gp; details: rat; for Impact of active transport on QPL_ECF (covariate effect of inhibitor): with GF120918 or tariquidar, estimate (RSE, %)
[8] = with probenecid, estimate (RSE, %)

Structure (SMILES) | log D (pH 7.4) [1] | No. of H acceptors [1] | No. of H donors [1] | PSA [1] | pKa (Base) [1] | QDIFF, drug dispersion rate in brain and CSF [3] | VPER1, distribution volume of the peripheral compartment 1 [3] | VPL, distribution volume of the central compartment [3] | clearance [3] [mL/min] | increase of QPL_ECF in the presence of P-gp inhibitors [7] [%] | Impact of active transport on QPL_ECF (covariate effect of inhibitor) [7] | other results
CC(=O)Nc1ccc(O)cc1 [Acetaminophen] | 0.5 | 2 | 2 | 49 | -4.4 | 0.0556 (10.3) mL/min | 219 (8.90) mL | 65.7 (25.4) mL |  |  |  | fp, free fraction in plasma [2]: 85%; fraction; percentage of the drug which is reabsorbed by enterohepatic circulation [3]: 93.3(1.20) %; fP (%), free fraction in plasma ([4]; ref Westerhout, 2011): 81%
CC(C)NCC(O)COc1ccc(CC(N)=O)cc1 (stereo not drawn) [Atenolol] |  | 4 | 3 |  |  |  |  |  |  |  |  | 
CN(Cc1cnc2nc(N)nc(N)c2n1)c1ccc(C(=O)N[C@@H](CCC(=O)O)C(=O)O)cc1 [Methotrexate] | -2.5 | 12 | 5 | 211 | 2.8 | 0.0598 (9.30) mL/min | 210 (7.20) mL | 51.2 (20.3) mL | 8.12 |  |  | pKa (Acid) [1]: 3.4; VPER2, distribution volume of the peripheral compartment 2 [3]: 114 (6.60) mL; QDIFF, drug dispersion rate in brain and CSF ([3]; listed as methotrexate): 0.0598 mL/min; fP (%), free fraction in plasma ([4]; ref Westerhout, 2014): 45%; increase of QPL_ECF in the presence of the inhibitor of MRPs, OATs and OATPs [5]: 409%; Impact of active transport on QLV_PL (covariate effect of inhibitor) [5, 8]: 0.410 (16.0)^a; Impact of active transport on QPL_ECF (covariate effect of inhibitor) [5, 8]: 4.09 (3.7)^a
CN1CC[C@]23c4c5ccc(O)c4O[C@H]2[C@@H](O)C=C[C@H]3[C@H]1C5 [Morphine] |  | 4 | 2 |  |  |  |  |  |  |  |  | 
Cc1nc2n(c(=O)c1CCN1CCC(c3noc4cc(F)ccc34)CC1)CCCC2O (stereo not drawn) [Paliperidone] | 2.1 | 5 | 1 | 82 | 8.8 | 0.0248 (10.7) mL/min |  | 28400 (8.00) mL | 192 | 43.4 | 0.434 (11.4)^b | log P [1]: 1.8; fraction unbound [6]: 0.08
O=C1NC(=O)C(c2ccccc2)(c2ccccc2)N1 [Phenytoin] |  | 2 | 2 | 58 |  | 0.0133 (13.0) mL/min | 5320 (7.80) mL | 2890 (7.90) mL | 44.7 | 35.5 | 0.355 (25.1)^b | QDIFF, drug dispersion rate in brain and CSF ([3]; listed as phenytoin): 0.0133 mL/min; plasma protein binding (% bound) [4]: 91%
C=C[C@H]1C[N@@]2CC[C@H]1C[C@@H]2[C@@H](O)c1ccnc2ccc(OC)cc12 [Quinidine] |  | 4 | 1 | 46 |  | 0.0237 (2.40) mL/min |  |  |  | 443 | 4.43 (2.80)^b | fP (%), free fraction in plasma ([4]; ref Westerhout, 2013): 14%
CCN1CCC[C@H]1CNC(=O)c1c(OC)ccc(Br)c1OC [Remoxipride] | 0.7 | 4 | 1 | 51 | 8.4 |  |  |  |  |  |  | log P [1]: 2.1; pKa (Acid) [1]: 13.1; fP (%), free fraction in plasma ([4]; ref Widman, 1993): 74%; plasma protein binding (% bound) [4]: 26%
Cc1nc2n(c(=O)c1CCN1CCC(c3noc4cc(F)ccc34)CC1)CCCC2 [Risperidone] |  | 4 | 0 | 62 |  |  |  |  | 465 |  |  | fraction unbound [6]: 0.07
